Earlier results on 1 molecule are cited in PubChem BioAssay AID1259409 (Chemical Carcinogenesis Research Information System (CCRIS), 2018).

For this data set, the system named is rodent chemically induced tumor inhibition, incidence and multiplicity. Kind of data set: CCRIS tumor inhibitor studies.

Take `O=c1c(O)c(-c2ccc(O)c(O)c2)oc2cc(O)cc(O)c12`: the “tumour outcome (control, treated, inhibition, significance)” value (Carcinogen: 4-NITROQUINOLINE-1-OXIDE, 56-57-5, Dose [Inhibitor]: 0, 500 PPM IN DIET FOR 10 WK BEGINNING 1 WK PRIOR TO CARCINOGEN DOSE (STUDY DURATION: 32 WK), Route [Inhibitor]: ORAL, Species: RAT, Strain/Sex: F344/MALE, Target Tissue: Type of Lesion: TONGUE: CARCINOMA, Dose [Carcinogen]: 20 PPM IN DRINKING WATER FOR 8 WK, Promoter: NONE USED) is listed as 9/15 (60%), 2/16 (13%), 78%, p<0.05; the “tumour outcome (control, treated, inhibition, significance)” value (Carcinogen: 4-NITROQUINOLINE-1-OXIDE, 56-57-5, Dose [Inhibitor]: 0, 500 PPM IN DIET FOR 10 WK BEGINNING 1 WK PRIOR TO CARCINOGEN DOSE (STUDY DURATION: 32 WK), Route [Inhibitor]: ORAL, Species: RAT, Strain/Sex: F344/MALE, Target Tissue: Type of Lesion: TONGUE: PAPILLOMA, Dose [Carcinogen]: 20 PPM IN DRINKING WATER FOR 8 WK, Promoter: NONE USED) is listed as 4/15 (27%), 1/16 (6%), 78%, not significant; the “tumour outcome (control, treated, inhibition, significance)” value (Carcinogen: 4-NITROQUINOLINE-1-OXIDE, 56-57-5, Dose [Inhibitor]: 0, 500 PPM IN DIET FOR 22 WK BEGINNING 1 WK POST CARCINOGEN TREATMENT (STUDY DURATION: 32 WK), Route [Inhibitor]: ORAL, Species: RAT, Strain/Sex: F344/MALE, Target Tissue: Type of Lesion: TONGUE: CARCINOMA, Dose [Carcinogen]: 20 PPM IN DRINKING WATER FOR 8 WK, Promoter: NONE USED) is recorded as 9/15 (60%), 1/15 (7%), 88%, p<0.05; the “tumour outcome (control, treated, inhibition, significance)” value (Carcinogen: 4-NITROQUINOLINE-1-OXIDE, 56-57-5, Dose [Inhibitor]: 0, 500 PPM IN DIET FOR 22 WK BEGINNING 1 WK POST CARCINOGEN TREATMENT (STUDY DURATION: 32 WK), Route [Inhibitor]: ORAL, Species: RAT, Strain/Sex: F344/MALE, Target Tissue: Type of Lesion: TONGUE: PAPILLOMA, Dose [Carcinogen]: 20 PPM IN DRINKING WATER FOR 8 WK, Promoter: NONE USED) is 4/15 (27%), 1/15 (7%), 74%, not significant; the “tumour outcome (control, treated, inhibition, significance)” value (Carcinogen: 7,12-DIMETHYLBENZ[A]ANTHRACENE, 57-97-6, Dose [Inhibitor]: 0, 0.2 ML OF A 1% SOLUTION 1/D FOR 2 WK APPLIED 5 MIN POST EACH CARCINOGEN DOSE THEN 1/D FOR 4 WK DURING PROMOTION STAGE, Route [Inhibitor]: DERMAL, Species: MOUSE, Strain/Sex: SWISS/MALE, Target Tissue: Type of Lesion: SKIN: PAPILLOMA, Dose [Carcinogen]: 0.2 ML OF A 0.24% SOLUTION IN DMSO 1/D FOR 2 WK, Promoter: CROTON OIL, 8001-28-3) was 23/23 (100%), 8/24 (33%), 67%, not calculated; the “tumour outcome (control, treated, inhibition, significance)” value (Carcinogen: 7,12-DIMETHYLBENZ[A]ANTHRACENE, 57-97-6, Dose [Inhibitor]: 0, 0.2 ML OF A 1% SOLUTION 1/D FOR 2 WK APPLIED 5 MIN PRIOR TO EACH CARCINOGEN DOSE (STUDY DURATION: 20 WK), Route [Inhibitor]: DERMAL, Species: MOUSE, Strain/Sex: SWISS/MALE, Target Tissue: Type of Lesion: SKIN: PAPILLOMA, Dose [Carcinogen]: 0.2 ML OF A 0.24% SOLUTION IN DMSO 1/D FOR 2 WK, Promoter: CROTON OIL, 8001-28-3) is 23/23 (100%), 20/24 (83%), 17%, not calculated. Further, the “tumour outcome (control, treated, inhibition, significance)” value is recorded as 16/21 (76%), 10/22 (46%), 39% p<0.05 (Carcinogen: 7,12-DIMETHYLBENZ[A]ANTHRACENE, 57-97-6, Dose [Inhibitor]: 0, 3% IN DIET FOR 28 WK (STUDY DURATION: 28 WK), Route [Inhibitor]: ORAL, Species: RAT, Strain/Sex: SPRAGUE-DAWLEY/FEMALE, Target Tissue: Type of Lesion: MAMMARY GLAND: CARCINOMA, Dose [Carcinogen]: 10 MG/100 G BW ONCE); 7/19 (37%), 4/18 (22%), 40%, not calculated (Carcinogen: 7,12-DIMETHYLBENZ[A]ANTHRACENE, 57-97-6, Dose [Inhibitor]: 1.0% IN POWDERED DIET BEGINNING 1 WK POST CARCINOGEN DOSE FOR 51 WK (STUDY DURATION: 52 WK), Route [Inhibitor]: ORAL, Species: RAT, Strain/Sex: SPRAGUE-DAWLEY/FEMALE, Target Tissue: Type of Lesion: EAR DUCT: BENIGN TUMOR, Dose [Carcinogen]: 2.5 MG/100 G BW IN 0.5 ML SESAME OIL ONCE, Promoter: NONE USED); 6/19 (32%), 4/18 (22%), 30%, not calculated (Carcinogen: 7,12-DIMETHYLBENZ[A]ANTHRACENE, 57-97-6, Dose [Inhibitor]: 1.0% IN POWDERED DIET BEGINNING 1 WK POST CARCINOGEN DOSE FOR 51 WK (STUDY DURATION: 52 WK), Route [Inhibitor]: ORAL, Species: RAT, Strain/Sex: SPRAGUE-DAWLEY/FEMALE, Target Tissue: Type of Lesion: MAMMARY GLAND: CARCINOMA, Dose [Carcinogen]: 2.5 MG/100 G BW IN 0.5 ML SESAME OIL ONCE, Promoter: NONE USED); 15/19 (79%), 8/18 (44%), 44%, not calculated (Carcinogen: 7,12-DIMETHYLBENZ[A]ANTHRACENE, 57-97-6, Dose [Inhibitor]: 1.0% IN POWDERED DIET BEGINNING 1 WK POST CARCINOGEN DOSE FOR 51 WK (STUDY DURATION: 52 WK), Route [Inhibitor]: ORAL, Species: RAT, Strain/Sex: SPRAGUE-DAWLEY/FEMALE, Target Tissue: Type of Lesion: MAMMARY GLAND: FIBROADENOMA, Dose [Carcinogen]: 2.5 MG/100 G BW IN 0.5 ML SESAME OIL ONCE, Promoter: NONE USED); 95%, 62%, 35%, not calculated (Carcinogen: 7,12-DIMETHYLBENZ[A]ANTHRACENE, 57-97-6, Dose [Inhibitor]: 30 UMOL 2 D/WK FOR 18 WK APPLIED 30-40 MIN PRIOR TO AND CONCURRENT WITH EACH PROMOTER TREATMENT BEGINNING 10 D POST CARC, Route [Inhibitor]: DERMAL, Species: MOUSE, Strain/Sex: CD-1/FEMALE, Target Tissue: Type of Lesion: SKIN: PAPILLOMA, Dose [Carcinogen]: 200 NMOL ONCE, Promoter: 12-O-TETRADECANOYLPHORBOL-13-ACETATE, 16561-29-8).
